Test results from ChEMBL document CHEMBL4610073, “Potential Antidiabetic Fumiquinazoline Alkaloids from the Marine-Derived Fungus Scedosporium apiospermum F41-1” (J Nat Prod, 2020).
Calls of active or inactive are those of the source. No cut-off for these calls is given here.

Assays:
[1] = test system: 3T3-L1; assay: Antidiabetic activity in mouse 3T3L1 preadipocytes assessed as increase in triglycerides level after 6 days; format: functional, cell-based; details: 3T3-L1, 144 h
[2] = test system: 3T3-L1; assay: Cytotoxicity against mouse 3T3L1 preadipocytes assessed as reduction in cell viability at 50 uM; format: cell-based; details: 3t3-l1, 50 µM
[3] = test system: 3T3-L1; assay: Antidiabetic activity in mouse 3T3L1 preadipocytes assessed as increase in triglycerides level at 5 uM after 3 to 6 days by ORO staining based microscopic method; format: functional, cell-based
[4] = test system: 3T3-L1; assay: Antidiabetic activity in mouse 3T3L1 preadipocytes assessed as increase in triglycerides level at 5 uM up to 3 days by ORO staining based microscopic method; format: functional, cell-based
[5] = test system: 3T3-L1; assay: Antidiabetic activity in mouse 3T3L1 preadipocytes assessed as increase in triglycerides level at 5 uM after 6 days; format: functional, cell-based
[6] = test system: 3T3-L1; assay: Antidiabetic activity in mouse 3T3L1 preadipocytes assessed as increase in triglycerides level at 1 to 5 uM after 6 days by ORO staining based microscopic method; format: functional, cell-based
[7] = test system: 3T3-L1; assay: Antidiabetic activity in mouse 3T3L1 preadipocytes assessed as increase in triglycerides level at 5 uM after 6 days in presence of GW9662; format: functional, cell-based
[8] = biological target: T1, Peroxisome proliferator-activated receptor gamma (Mus musculus) (UniProt P37238); assay: Agonist activity at PPARgamma in mouse 3T3L1 preadipocytes assessed as increase in FABP4 mRNA expression at 5 uM after 6 days by RT-PCR analysis; format: cell-based; details: 3T3-L1
T1 sequence (whole entry): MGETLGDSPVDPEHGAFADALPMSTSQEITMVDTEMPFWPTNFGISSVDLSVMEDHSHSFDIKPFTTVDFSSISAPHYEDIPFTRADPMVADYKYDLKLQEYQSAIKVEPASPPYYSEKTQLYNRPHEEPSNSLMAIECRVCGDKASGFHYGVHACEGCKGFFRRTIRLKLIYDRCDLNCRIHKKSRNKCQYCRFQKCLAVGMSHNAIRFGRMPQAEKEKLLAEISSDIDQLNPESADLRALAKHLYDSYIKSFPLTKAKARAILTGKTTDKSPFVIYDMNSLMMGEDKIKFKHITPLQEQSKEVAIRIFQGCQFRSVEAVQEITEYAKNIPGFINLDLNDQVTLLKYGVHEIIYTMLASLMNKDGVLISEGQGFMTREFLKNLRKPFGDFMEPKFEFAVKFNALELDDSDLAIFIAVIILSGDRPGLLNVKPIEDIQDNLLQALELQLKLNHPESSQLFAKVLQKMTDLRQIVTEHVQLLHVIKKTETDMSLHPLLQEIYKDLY

[9] = biological target: T1, Peroxisome proliferator-activated receptor gamma (Mus musculus); assay: Agonist activity at PPARgamma in mouse 3T3L1 preadipocytes assessed as increase in C/EBPalpha mRNA expression at 5 uM after 6 days by RT-PCR analysis; format: cell-based; details: 3T3-L1
[10] = biological target: T1, Peroxisome proliferator-activated receptor gamma (Mus musculus); assay: Agonist activity at PPARgamma in mouse 3T3L1 preadipocytes assessed as increase in SCD-1 mRNA expression at 5 uM after 6 days by RT-PCR analysis; format: cell-based; details: 3T3-L1
[11] = biological target: T1, Peroxisome proliferator-activated receptor gamma (Mus musculus); assay: Agonist activity at PPARgamma in mouse 3T3L1 preadipocytes assessed as increase in PPARgamma mRNA expression at 5 uM after 6 days by RT-PCR analysis; format: cell-based; details: 3T3-L1
[12] = biological target: T1, Peroxisome proliferator-activated receptor gamma (Mus musculus); assay: Agonist activity at PPARgamma in mouse 3T3L1 preadipocytes assessed as increase in AMPKalpha mRNA expression at 5 uM after 6 days by RT-PCR analysis; format: cell-based; details: 3T3-L1
[13] = biological target: T1, Peroxisome proliferator-activated receptor gamma (Mus musculus); assay: Agonist activity at PPARgamma in mouse 3T3L1 preadipocytes assessed as increase in LXRalpha mRNA expression at 5 uM after 6 days by RT-PCR analysis; format: cell-based; details: 3T3-L1
[14] = test system: 3T3-L1; assay: Antidiabetic activity in mouse 3T3L1 preadipocytes assessed as increase in triglycerides level at 5 uM after 6 days in presence of T0070907; format: functional, cell-based

Row | Activity [8] | Activity [9] | Activity [10] | Activity [11] | Activity [12] | Activity [13] | SMILES | EC50 [1] [µM] | Activity [2] | Activity [3] | Activity [4] | Activity [5] | Activity [6] | Activity [7] | Activity [14]
1 | – | – | – | – | – | – | CN(CCOc1ccc(CC2SC(=O)NC2=O)cc1)c1ccccn1 (stereo unspecified) [ROSIGLITAZONE] | 0.12 | – | – | – | – | – | – | –
2 | – | – | – | – | – | – | C/C=C1\NC(=O)[C@@H](Cc2c[nH]c3ccccc23)n2c1nc1ccccc1c2=O | 1.03 | Non-Toxic | Active | Active | Active | Active | – | –
3 | – | – | – | – | – | – | CC(C)=C1NC(=O)[C@@H](C[C@]2(O)c3ccccc3N3C(=O)C(C)(C)N[C@H]32)n2c1nc1ccccc1c2=O | 2.34 | Non-Toxic | Active | Active | Active | Active | – | –
4 | Active | Active | Active | Active | Active | Active | CC(C)=C1NC(=O)[C@@H](C[C@]2(O)c3ccccc3N3C(=O)[C@H](C(C)C)N[C@H]32)n2c1nc1ccccc1c2=O | 0.36 | Non-Toxic | Active | Active | Active | Active | inactive | inactive
5 | Active | Active | Active | Active | Active | Active | CC[C@@H]1N[C@@H]2N(C1=O)c1ccccc1[C@@]2(O)C[C@@H]1C(=O)NC(=C(C)C)c2nc3ccccc3c(=O)n21 | 0.27 | Non-Toxic | Active | Active | Active | Active | inactive | inactive
